According to patent US9526243B2, “Pollination success and seed set in corn hybrid seed production” (priority 2012, dated 2016):

Experiments:
Assay type in all cases: in vivo, corn (maize, Zea mays)
[1] = test system: male parent plant of Hybrid A (corn)
Text: Hybrid A is a three-way corn hybrid which performs well in rain-fed areas in India. The female parent of this hybrid is a single cross and male parent is an inbred. […] The ear height in female is 94 cm and male plant height (including tassel length) is 190 cm. The ratio of male parent plant height to female parent ear height is 2.02. This is not favorable for pollen dispersal and cross fertilization. A taller male gives a very clear advantage in easy spread of pollen. Further, a height disadvantage is amplified where the female is a single cross and male is inbred, as the robust female parent suppresses male parent growth. […] With less seed yield due to low seed set, seed production may be uneconomical in Hybrid A. Controlled use of Gibberellic Acid as foliar spray for male parent helped increase the plant height and thereby facilitated easier dispersal of pollen for better pollination success.
When GA3 was sprayed on male parent at a given dosage, the last few internodes were elongated and the plant height was increased by 33 cm. The ratio of male parent plant height to female parent ear height increased from 2.02 in control (no GA3 spray) to 2.40 after spray. This spray was done when a minimum of 80% of the plants had the tassel wrapped in two leaves.
A field trial was conducted to study the impact of GA3 on male parent plant height and also seed yield in hybrid seed production. GA3 dose of 10 g (dissolved in 100 ml alcohol) was sprayed in one acre of male plants (25% of area in 3:1 row ratio) when male tassel is wrapped up in two leaves.

[2] = test system: Inbred B male plants (corn); test: GA3 spray to increase male inbred height, Inbred B (Brazil); conditions: for plant height increase: one application before flowering, 365 g GA3 (10% active ingredient) per hectare
Procedure: (§1) GA3 spray to increase male inbred height was also tested with 2 more inbreds, Inbred B and Inbred C, in Brazil.
Inbred B was sown in two sequential plantings, separated by 80 to 100 heat units. The first planting is referred to as the primary male; the second planting is referred to as the secondary male. The two male plantings were separated in the field by 40 cm; minimum distance from female rows was 70 cm.
(§2) Data were collected after the following treatments: (a) control, (b) GA3: one application, before flowering, when the tassel is enveloped in 2 leaves; (b) GA3: 2 sequential applications, one at V6 stage and 1 application before flowering. The concentration of GA3 used was 365 g of GA3 (10% active ingredient) per hectare (which is approximately equivalent to 40 g of GA3 at 90% active ingredient), and the spray volume was 130 liters/hectare.
(§3) The plot had 5.20 meter length of each row and 60 cm between plots. Ten male plants in sequence for each male row (primary male and secondary male separate) were measured and the average calculation was obtained and replicated 5 times in different plots. Measurements taken were plant height; length of primary rachis of the tassel; number of secondary tassel branches; and visual pollen score where 1=no pollen (sterile), 5=average amount of pollen, and 9=large amount of pollen.

[3] = test system: Inbred C male plants (corn); test: GA3 spray to increase male inbred height, Inbred C (Brazil)
Procedure: as §1, §2, §3

[4] = Inbred B, one GA application vs control
[5] = Inbred B, two sequential GA treatments (V6 and before flowering), relative to control, primary and secondary males

**Q.** `C=C1C[C@]23C[C@@]1(O)CC[C@H]2[C@@]12C=C[C@H](O)[C@@](C)(C(=O)O1)[C@H]2[C@@H]3C(=O)O` [GA3, gibberellin A3] was tested. Which yield improvement ([1]; Hybrid A experimental plot, GA3 treatment vs control) did it give?
**A.** 32%

**Q.** What about the “hybrid seed yield with GA3 treatment” value ([1]; Hybrid A experimental plot, control 607 Kg/Acre) of the same compound?
**A.** 803 Kg/Acre

**Q.** What about the “negative or deleterious effects on other plant processes” value ([1]; Hybrid A male parent after GA3 spray) of the same compound?
**A.** without any negative or deleterious effects

**Q.** And the “increase in male parent plant height” value ([1]; Hybrid A male parent, GA3 10 g sprayed when tassel wrapped in two leaves, vs control (no GA3 spray))?
**A.** 33 cm

**Q.** What about the “male parent plant height increase” value ([1]; Hybrid A male parent, after spraying GA3, from 190 cm) of the same compound?
**A.** 17%

**Q.** What about the “male parent plant height after spraying GA3” value ([1]; Hybrid A male parent, control 190 cm) of the same compound?
**A.** 223 cm

**Q.** And the “ratio of male parent plant height to female parent ear height after spray” value ([1]; Hybrid A, after GA3 spray, control 2.02)?
**A.** 2.40

**Q.** What about the plant height increase ([2]; Inbred B primary males) of the same compound?
**A.** about 10 cm

**Q.** What about the plant height increase ([2]; Inbred B secondary males) of the same compound?
**A.** ~15 cm

**Q.** And the “height of male parent plants” value ([2]; Inbred B, GA3 concentration increased to 16 g/1000 m^2 of male plants)?
**A.** increase further

**Q.** What about the “number of secondary branches on the rachis” value [2, 4] of the same compound?
**A.** did not change significantly

**Q.** What about the primary rachis length [2, 4] of the same compound?
**A.** did not change significantly

**Q.** What about the pollen score ([2]; Inbred B, one GA application vs control, visual score 1-9) of the same compound?
**A.** did not change significantly

**Q.** And the pollen score [2, 5]?
**A.** reduced

**Q.** What about the “size of the main rachis” value [2, 5] of the same compound?
**A.** reduced

**Q.** And the “effect of a second application compared with a single application” value ([3]; 2 sequential applications (V6 and before flowering))?
**A.** not more favorable than a single application

**Q.** What about the “number of secondary branches on the rachis” value ([3]; one GA application vs control) of the same compound?
**A.** did not change significantly

**Q.** What about the primary rachis length ([3]; one GA application vs control) of the same compound?
**A.** did not change significantly

**Q.** And the pollen score ([3]; one GA application vs control, visual score 1-9)?
**A.** did not change significantly

**Q.** And the plant height increase ([3]; one application of GA3)?
**A.** ~12 cm
